Laboratory results taken from ChEMBL document CHEMBL1201862, “PubChem BioAssay data set” (2004).
Calls of active or inactive are those of the source.

Key:
[1] = cells; assay type: functional
[2] = Luminescence Cell-Based Dose Confirmation HTS to Identify Inhibitors of Platelet Dense Granule Release. [Related pubchem assays: 1663 (Primary HTS), 1678 (Summary of Project)]; assay type: functional
[3] = target: Luciferin 4-monooxygenase (Photinus pyralis, UniProt P08659); test: firefly luciferase enzyme inhibitors, dose response, biochemical, luminescence (AID 1891)
[4] = target: T1, Sentrin-specific protease 8 (Homo sapiens, UniProt Q96LD8); assay type: functional;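 note: luminescence read-out of SENP8 inhibition, dose-response confirmation following an ultra-high-throughput screen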
T1 sequence (Q96LD8 whole entry): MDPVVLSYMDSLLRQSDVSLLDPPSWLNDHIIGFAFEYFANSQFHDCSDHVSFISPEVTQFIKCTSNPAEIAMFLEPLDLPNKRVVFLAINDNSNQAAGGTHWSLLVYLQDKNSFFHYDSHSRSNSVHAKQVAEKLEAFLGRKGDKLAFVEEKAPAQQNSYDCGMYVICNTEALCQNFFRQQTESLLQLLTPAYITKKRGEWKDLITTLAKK

[5] = target: T2, Sentrin-specific protease 7 (Homo sapiens, UniProt Q9BQF6); assay type: functional;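 note: Luminescence-based dose-response confirmation of ultra-high-throughput screening hits, measuring inhibition of SENP7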
T2 sequence (Q9BQF6 whole entry): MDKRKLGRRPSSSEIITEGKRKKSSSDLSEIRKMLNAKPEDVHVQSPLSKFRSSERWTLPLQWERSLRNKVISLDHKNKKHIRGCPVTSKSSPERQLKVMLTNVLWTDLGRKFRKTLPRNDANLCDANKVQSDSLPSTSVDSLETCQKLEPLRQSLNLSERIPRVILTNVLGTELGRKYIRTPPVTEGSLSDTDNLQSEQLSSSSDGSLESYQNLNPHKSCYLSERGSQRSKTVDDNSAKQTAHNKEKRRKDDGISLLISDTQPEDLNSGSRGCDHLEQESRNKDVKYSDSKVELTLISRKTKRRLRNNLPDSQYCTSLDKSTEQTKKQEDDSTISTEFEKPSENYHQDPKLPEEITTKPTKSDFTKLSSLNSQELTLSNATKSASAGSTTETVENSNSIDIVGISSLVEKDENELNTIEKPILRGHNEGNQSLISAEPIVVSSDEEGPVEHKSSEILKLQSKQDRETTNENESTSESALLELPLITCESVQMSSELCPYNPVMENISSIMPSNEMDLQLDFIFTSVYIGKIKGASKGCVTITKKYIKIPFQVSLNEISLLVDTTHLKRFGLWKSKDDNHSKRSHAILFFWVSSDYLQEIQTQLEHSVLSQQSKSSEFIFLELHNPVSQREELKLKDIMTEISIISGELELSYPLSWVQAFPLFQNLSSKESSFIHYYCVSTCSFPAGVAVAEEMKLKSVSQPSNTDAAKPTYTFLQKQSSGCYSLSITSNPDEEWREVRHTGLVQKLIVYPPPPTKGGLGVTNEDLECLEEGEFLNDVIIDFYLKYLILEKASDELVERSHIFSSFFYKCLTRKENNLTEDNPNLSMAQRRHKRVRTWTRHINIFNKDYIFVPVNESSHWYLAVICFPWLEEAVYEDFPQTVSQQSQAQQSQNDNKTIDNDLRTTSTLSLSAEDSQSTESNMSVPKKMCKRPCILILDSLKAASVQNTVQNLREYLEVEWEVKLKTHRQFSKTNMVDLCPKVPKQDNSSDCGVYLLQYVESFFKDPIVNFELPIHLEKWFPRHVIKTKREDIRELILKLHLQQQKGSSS

[6] = target: T3, Sentrin-specific protease 6 (Homo sapiens, UniProt Q9GZR1); assay type: functional;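 note: Luminescence-based dose-response confirmatory assay of SENP6 inhibition, following up an ultra-high-throughput screen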
T3 sequence (Q9GZR1 whole entry): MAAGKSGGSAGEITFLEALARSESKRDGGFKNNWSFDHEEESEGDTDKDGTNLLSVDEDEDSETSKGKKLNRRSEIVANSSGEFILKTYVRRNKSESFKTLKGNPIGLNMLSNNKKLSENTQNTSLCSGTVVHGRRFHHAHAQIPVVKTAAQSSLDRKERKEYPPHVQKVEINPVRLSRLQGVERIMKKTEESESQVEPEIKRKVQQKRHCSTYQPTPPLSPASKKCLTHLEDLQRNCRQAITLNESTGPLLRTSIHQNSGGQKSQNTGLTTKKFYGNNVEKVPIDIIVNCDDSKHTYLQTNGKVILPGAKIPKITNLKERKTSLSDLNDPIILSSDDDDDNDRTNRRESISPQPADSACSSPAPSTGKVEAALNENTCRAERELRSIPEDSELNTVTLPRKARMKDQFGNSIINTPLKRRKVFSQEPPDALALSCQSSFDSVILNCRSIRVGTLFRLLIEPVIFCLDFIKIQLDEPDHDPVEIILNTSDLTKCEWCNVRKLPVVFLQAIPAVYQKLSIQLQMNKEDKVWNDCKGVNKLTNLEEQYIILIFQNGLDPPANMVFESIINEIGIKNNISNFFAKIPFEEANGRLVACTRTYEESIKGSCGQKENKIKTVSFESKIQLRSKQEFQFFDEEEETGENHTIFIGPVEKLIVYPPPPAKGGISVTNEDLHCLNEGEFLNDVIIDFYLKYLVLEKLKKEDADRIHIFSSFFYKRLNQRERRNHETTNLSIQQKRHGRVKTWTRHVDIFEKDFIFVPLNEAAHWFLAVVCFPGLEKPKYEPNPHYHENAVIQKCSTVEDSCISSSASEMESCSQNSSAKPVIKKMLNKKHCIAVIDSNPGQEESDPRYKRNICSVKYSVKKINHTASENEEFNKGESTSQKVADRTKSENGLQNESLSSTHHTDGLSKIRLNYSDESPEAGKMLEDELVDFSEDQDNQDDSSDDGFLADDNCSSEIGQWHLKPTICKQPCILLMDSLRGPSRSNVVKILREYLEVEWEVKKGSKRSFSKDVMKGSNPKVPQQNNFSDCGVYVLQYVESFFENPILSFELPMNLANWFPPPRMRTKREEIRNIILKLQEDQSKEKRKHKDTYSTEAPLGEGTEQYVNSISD

[7] = target: T4, Caspase-3 (Homo sapiens, UniProt P42574); assay type: functional;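 note: Dose-response selectivity test against caspase-3 for candidate inhibitors of sentrin-specific proteases (SENPs)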
T4 sequence (P42574 whole entry): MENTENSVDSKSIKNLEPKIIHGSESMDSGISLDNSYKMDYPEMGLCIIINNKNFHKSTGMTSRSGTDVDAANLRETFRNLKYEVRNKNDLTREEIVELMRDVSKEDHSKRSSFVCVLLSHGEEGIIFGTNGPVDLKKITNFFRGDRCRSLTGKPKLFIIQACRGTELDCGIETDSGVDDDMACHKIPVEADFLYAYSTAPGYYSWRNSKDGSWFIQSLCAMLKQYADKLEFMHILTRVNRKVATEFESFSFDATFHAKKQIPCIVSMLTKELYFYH

[8] = HepG2 cell cytotoxicity, dose response, cytotoxicity control, plate reader, cherry-pick, antagonist series (AID 743416); assay type: functional, cell-based
[9] = target: T5, CAAX prenyl protease 2 (Saccharomyces cerevisiae S288c, UniProt Q03530); assay type: biochemical
T5 sequence (Q03530 whole entry): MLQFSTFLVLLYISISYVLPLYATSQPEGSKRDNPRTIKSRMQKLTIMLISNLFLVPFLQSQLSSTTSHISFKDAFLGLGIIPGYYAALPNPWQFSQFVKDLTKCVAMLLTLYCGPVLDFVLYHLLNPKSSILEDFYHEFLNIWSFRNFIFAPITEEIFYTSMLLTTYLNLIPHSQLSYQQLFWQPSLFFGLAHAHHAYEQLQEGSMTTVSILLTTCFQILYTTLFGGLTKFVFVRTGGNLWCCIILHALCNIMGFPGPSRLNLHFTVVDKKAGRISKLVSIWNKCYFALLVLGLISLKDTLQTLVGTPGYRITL

[10] = target: Beta-galactosidase (Escherichia coli, UniProt Q8VNN2); test: Dose response counterscreen for EBI2 assay utilizing the enzyme, b-galactosidase.; assay type: functional
[11] = target: T6, Protein skinhead-1 (Caenorhabditis elegans, UniProt P34707); assay type: functional
T6 sequence (P34707 whole entry): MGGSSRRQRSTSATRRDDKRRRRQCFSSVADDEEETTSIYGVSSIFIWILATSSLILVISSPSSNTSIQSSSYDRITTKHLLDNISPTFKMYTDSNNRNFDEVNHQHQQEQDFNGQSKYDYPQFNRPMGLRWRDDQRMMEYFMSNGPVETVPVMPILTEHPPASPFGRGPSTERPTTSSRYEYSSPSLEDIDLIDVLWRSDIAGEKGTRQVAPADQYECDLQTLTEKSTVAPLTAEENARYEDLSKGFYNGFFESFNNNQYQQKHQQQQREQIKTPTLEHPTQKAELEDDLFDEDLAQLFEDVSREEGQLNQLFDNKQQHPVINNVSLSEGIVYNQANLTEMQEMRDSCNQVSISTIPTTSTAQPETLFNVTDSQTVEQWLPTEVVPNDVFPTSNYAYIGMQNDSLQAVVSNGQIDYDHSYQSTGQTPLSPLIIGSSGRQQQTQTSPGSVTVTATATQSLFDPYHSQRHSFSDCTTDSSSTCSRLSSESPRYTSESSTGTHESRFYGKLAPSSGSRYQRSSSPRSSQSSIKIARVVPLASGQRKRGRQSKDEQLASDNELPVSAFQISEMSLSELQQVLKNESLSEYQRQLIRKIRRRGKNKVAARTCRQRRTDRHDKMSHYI

[12] = test system: HEK293; test: inhibitors of LMP1-driven NF-kB reporter, dose response, cell-based, HEK293, luciferase, cherry-pick (AID 588343); assay type: functional; conditions: Homo sapiens
[13] = target: T7, Heat shock factor protein 1 (Mus musculus, UniProt P38532); test: inhibition of MG132-induced HSE-luciferase signal, confirmation, cell-based, NIH3T3, luminescence, dose retest (AID 2382); assay type: functional;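 note: NIH3T3 fibroblasts with HSF1-driven luciferase reporter stressed by proteasome inhibitor MG132; luminescence from HSF1-driven luciferase expression after 8 hours of MG132 stress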
T7 sequence (P38532 whole entry): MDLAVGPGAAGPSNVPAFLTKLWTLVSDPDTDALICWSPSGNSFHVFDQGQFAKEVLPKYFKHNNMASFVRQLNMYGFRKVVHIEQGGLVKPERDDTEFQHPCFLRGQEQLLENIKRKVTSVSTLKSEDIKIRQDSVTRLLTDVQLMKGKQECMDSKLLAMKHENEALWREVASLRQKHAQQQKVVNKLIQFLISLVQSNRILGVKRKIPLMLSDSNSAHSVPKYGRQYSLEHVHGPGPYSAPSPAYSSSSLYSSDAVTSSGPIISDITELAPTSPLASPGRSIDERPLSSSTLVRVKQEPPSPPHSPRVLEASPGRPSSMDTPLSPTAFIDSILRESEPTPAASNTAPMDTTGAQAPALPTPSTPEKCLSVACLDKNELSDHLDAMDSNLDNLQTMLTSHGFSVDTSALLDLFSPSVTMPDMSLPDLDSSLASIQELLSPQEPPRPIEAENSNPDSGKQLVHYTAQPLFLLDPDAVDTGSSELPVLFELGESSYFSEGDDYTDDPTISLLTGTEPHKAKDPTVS

[14] = target: T8, Fatty acid synthase (Homo sapiens, UniProt P49327); test: FAS thioesterase domain inhibitors, dose response, biochemical, kinetic fluorescence intensity (AID 624326); assay type: functional;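 note: rate of fluorescence rise from hydrolysis of a fluorogenic O-methyl fluorescein ester substrate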
[15] = target: T8, Fatty acid synthase; test: FAS thioesterase domain inhibitors, dose response, biochemical, endpoint fluorescence intensity, uHTS hits (AID 624327); assay type: functional;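 note: fluorescence from hydrolysis of an O-methyl fluorescein acyl ester substrate by the enzyme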

Chain of Luciferin 4-monooxygenase (P08659 whole entry): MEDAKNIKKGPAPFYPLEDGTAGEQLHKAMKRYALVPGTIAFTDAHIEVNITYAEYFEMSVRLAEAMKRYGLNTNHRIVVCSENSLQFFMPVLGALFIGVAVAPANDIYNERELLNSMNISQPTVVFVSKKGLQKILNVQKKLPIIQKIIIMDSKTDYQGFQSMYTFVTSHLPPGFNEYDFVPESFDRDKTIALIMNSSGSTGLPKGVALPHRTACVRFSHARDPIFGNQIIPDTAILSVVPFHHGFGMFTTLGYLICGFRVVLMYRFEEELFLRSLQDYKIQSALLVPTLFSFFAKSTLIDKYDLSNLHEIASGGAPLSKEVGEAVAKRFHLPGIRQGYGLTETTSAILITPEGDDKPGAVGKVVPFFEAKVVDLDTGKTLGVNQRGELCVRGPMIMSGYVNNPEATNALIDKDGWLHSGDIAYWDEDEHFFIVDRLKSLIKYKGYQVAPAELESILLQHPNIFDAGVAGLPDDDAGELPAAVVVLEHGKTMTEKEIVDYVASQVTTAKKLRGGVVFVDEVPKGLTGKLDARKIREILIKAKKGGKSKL
Chain of Beta-galactosidase (Q8VNN2 whole entry): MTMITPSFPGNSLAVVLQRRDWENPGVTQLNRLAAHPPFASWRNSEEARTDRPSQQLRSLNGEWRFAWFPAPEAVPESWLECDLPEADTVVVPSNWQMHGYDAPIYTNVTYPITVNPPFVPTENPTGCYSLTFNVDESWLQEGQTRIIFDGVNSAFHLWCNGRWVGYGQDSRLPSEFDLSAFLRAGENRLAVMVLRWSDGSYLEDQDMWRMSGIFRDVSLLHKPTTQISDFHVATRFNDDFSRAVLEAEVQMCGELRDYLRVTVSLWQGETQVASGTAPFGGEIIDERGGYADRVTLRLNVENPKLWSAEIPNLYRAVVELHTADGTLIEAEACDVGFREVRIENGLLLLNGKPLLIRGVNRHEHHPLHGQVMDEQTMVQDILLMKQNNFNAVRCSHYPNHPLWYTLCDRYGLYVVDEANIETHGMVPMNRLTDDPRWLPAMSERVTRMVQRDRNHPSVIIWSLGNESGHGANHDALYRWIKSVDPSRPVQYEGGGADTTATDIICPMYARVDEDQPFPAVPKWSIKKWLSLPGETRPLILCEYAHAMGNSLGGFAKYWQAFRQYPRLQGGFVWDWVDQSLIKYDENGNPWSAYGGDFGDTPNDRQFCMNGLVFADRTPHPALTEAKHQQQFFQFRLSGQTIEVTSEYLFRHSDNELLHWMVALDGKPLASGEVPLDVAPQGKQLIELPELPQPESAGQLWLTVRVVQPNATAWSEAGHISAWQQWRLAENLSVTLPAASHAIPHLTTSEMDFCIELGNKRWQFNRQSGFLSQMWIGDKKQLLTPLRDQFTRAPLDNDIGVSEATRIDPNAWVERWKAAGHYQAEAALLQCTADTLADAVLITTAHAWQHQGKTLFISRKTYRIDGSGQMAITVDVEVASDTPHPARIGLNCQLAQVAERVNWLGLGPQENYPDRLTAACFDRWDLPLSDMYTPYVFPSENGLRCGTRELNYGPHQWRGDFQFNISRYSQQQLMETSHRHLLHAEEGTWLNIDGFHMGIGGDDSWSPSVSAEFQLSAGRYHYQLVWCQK
T8 sequence (P49327 whole entry, the tested form may be a part): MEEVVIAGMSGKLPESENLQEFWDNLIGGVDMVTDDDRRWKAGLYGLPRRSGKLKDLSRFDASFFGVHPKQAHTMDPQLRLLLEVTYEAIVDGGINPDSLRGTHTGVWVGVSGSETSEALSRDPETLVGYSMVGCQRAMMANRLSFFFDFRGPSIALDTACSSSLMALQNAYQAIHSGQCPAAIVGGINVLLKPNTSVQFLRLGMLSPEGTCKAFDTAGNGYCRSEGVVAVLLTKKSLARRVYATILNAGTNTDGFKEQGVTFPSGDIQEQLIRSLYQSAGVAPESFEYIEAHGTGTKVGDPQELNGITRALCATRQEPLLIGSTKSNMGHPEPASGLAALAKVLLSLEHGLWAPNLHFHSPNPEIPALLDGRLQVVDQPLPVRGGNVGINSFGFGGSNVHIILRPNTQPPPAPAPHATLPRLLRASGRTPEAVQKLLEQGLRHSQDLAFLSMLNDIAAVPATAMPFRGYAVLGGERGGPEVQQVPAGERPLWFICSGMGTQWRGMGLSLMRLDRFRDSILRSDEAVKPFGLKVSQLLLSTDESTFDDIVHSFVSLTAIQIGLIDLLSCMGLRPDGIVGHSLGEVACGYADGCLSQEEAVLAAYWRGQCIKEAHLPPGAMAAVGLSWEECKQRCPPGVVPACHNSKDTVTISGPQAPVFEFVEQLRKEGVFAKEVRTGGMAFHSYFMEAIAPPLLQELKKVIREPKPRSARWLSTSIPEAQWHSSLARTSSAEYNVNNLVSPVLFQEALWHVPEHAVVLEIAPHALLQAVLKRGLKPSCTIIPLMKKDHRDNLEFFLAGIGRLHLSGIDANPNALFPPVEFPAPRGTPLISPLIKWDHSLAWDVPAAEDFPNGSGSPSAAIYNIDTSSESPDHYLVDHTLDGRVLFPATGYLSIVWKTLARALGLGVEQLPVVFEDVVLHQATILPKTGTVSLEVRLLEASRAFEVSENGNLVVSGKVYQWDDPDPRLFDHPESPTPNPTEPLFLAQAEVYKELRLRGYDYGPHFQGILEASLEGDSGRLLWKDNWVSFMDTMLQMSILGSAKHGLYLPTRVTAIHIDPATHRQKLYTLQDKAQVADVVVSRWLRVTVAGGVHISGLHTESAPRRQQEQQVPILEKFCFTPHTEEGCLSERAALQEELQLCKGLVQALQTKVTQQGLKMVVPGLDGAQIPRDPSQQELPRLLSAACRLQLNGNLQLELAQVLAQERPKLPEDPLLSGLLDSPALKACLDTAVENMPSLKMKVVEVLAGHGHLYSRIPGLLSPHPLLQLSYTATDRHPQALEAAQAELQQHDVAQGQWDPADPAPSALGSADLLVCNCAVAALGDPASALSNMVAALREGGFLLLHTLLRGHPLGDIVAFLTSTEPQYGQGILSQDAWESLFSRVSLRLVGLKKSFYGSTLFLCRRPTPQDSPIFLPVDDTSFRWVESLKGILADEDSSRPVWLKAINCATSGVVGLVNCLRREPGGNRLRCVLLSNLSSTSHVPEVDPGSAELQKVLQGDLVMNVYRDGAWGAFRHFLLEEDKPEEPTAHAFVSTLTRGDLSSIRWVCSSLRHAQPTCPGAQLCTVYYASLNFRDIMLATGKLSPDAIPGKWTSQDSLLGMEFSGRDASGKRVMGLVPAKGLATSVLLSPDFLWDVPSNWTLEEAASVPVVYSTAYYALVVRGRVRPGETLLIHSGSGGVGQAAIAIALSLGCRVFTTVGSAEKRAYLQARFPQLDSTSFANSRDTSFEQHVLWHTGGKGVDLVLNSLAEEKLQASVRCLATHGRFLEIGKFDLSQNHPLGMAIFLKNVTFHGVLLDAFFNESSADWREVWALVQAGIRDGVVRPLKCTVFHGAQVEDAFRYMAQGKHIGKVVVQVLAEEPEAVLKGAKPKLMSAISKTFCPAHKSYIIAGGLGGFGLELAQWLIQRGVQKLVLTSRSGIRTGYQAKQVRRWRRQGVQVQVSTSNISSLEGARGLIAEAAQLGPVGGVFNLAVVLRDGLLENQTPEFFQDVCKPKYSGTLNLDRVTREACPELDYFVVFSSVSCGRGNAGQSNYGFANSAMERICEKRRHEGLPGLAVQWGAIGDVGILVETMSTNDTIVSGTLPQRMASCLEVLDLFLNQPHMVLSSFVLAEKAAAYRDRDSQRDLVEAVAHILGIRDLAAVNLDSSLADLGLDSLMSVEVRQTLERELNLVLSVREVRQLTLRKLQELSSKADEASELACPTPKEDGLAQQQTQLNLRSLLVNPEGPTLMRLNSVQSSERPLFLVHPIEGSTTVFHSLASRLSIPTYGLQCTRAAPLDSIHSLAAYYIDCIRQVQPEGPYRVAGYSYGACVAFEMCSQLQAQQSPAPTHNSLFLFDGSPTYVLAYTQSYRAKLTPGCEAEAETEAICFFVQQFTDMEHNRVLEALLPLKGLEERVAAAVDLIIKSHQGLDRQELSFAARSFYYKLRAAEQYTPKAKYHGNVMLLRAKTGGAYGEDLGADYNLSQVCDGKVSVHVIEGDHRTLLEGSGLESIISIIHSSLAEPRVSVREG

CN1/C(=C\C(=O)COC(=O)c2ccc([N+](=O)[O-])o2)C(C)(C)c2ccccc21
IC50 [1]: 1.22 µM (active)
EC50 [2]: > 112 µM (not active)
EC50 [3]: > 112 µM (not active)

O=C(CCCN1C(=O)/C(=C/c2cccc(Br)c2)SC1=S)N1CCOCC1
IC50 [4]: 78.1 µM (active)
IC50 [5]: 45.6 µM (active)
IC50 [6]: 79.6 µM (active)
IC50 [7]: > 100 µM (inactive)

Cc1ccc(CNS(=O)(=O)c2ccc3c(c2)CCN3C(=O)CCCC(=O)O)cc1
AC50 [8]: > 52 µM (inactive)

Cc1ccc(C)c(-c2nnc(NC(=O)CS(=O)(=O)c3ccccc3)o2)c1
EC50 [2]: > 112 µM (not active)
EC50 [3]: > 112 µM (not active)

CN(C)CCN(C(=O)c1ccc2ccccc2c1)c1nc2ccc(Br)cc2s1
AC50 [9]: 4.77 µM (active)

COc1cc(/C=C(\C#N)C(=O)Nc2ccc3ccccc3c2)c([N+](=O)[O-])cc1OC
IC50 [10]: > 80 µM (inactive)

COc1ccc(NC(=O)c2sc(SCc3ccccc3)nc2N)cc1
IC50 [10]: > 80 µM (inactive)

CC(=O)Oc1ccc(/C=C/c2nc3ccccc3c(=O)o2)cc1
EC50 [2]: 0.333 µM (active)
EC50 [3]: 0.359 µM (active)

O=C(c1cnc2n(c1=O)CCS2)N1CCN(C(c2ccccc2)c2ccc(Cl)cc2)CC1 (configuration not stated)
AC50 [9]: 8.81 µM (active)

Cc1[nH]c2nc(SCC(=O)c3ccccc3)nc-2cc1Br
EC50 [2]: > 112 µM (not active)
EC50 [3]: > 112 µM (not active)

O=C1/C(=C\c2ccc(O)cc2)SC(=S)N1Cc1ccccc1
IC50 [4]: 9.59 µM (active)
IC50 [5]: 16 µM (active)
IC50 [6]: 8 µM (active)
IC50 [7]: 41 µM (active)

O=C(/C=C/Nc1ccc(F)cc1Br)c1ccccc1
IC50 [11]: > 100 µM (inactive)
EC50 [2]: 3.37 µM (active)
EC50 [3]: 0.283 µM (active)
AC50 [12]: 1.38 µM (active)
EC50 [13]: < 0.16 µM (active)

O=C(c1ccccc1)C1CCN(C(=O)c2ccc(Cl)cc2)CC1
IC50 [10]: > 80 µM (inactive)

CC(C)(C)CNC(=O)c1cccc2c1C(=O)c1ccc(N3CCCC3)cc1S2(=O)=O
IC50 [10]: > 80 µM (inactive)

COc1cccc(NC(=O)Cn2c3ccc(F)cc3c3nc4n(c(=O)c32)CCCS4)c1
IC50 [10]: > 80 µM (inactive)

C[C@@H]1CN([C@H](C)CO)S(=O)(=O)c2ccc(C#Cc3ccccc3F)cc2O[C@@H]1CN(C)C(=O)Cc1ccccc1
IC50 [14]: 3.79 µM (active)
IC50 [15]: 3.71 µM (active)
IC50 [10]: > 80 µM (inactive)

CCOc1ccc(/C=N/NC(=O)c2ccc(Cn3cc(Br)cn3)o2)cc1
IC50 [4]: 56.5 µM (active)
IC50 [5]: 13.2 µM (active)
IC50 [6]: 52.7 µM (active)
IC50 [7]: 35.4 µM (active)
